Counter-ions that a name gives are not always drawn.
What was measured:
[1] = system: genetisch hypertensive Ratten; assay: Blood pressure lowering in hypertensive rats (indirect sphygmomanometry on the tail); type: in vivo; details: perorale Dosen von 5 mg/kg/Tag und darunter, preferably as hydrochloride
Source text: (§1) Die Verbindungen der Erfindung zeigen wertvolle pharmakologische Eigenschaften, in erster Linie hypotensive, antihypertensive und bradykardische Wirkungen, welche unter anderem durch ihre a- und ß-adrenergischblockierenden, vasodilatorischen und ihre hemmenden Effekte auf das zentrale sympatische Nervensystem zustandekommen. Diese Wirkungen können in Tierversuchen, vorzugsweise an Säugetieren, wie Ratten, Katzen oder Hunden, als Testobjekte nachgewiesen werden. Die Tiere können normotensiv oder hypertensiv, z.B. genetisch hypertensive Ratten sein. Die genannten Verbindungen können ihnen enteral oder parenteral, vorzugsweise oral oder intravenös, z.B. durch Gelatine-Kapseln oder in Form von Stärke enthaltenden Suspensionen bzw. wässerigen Lösungen, verabreicht werden. Die verwendete Dosis kann in einem Bereich von ungefähr zwischen 0,01 und 50 mg/kg/Tag, vorzugsweise ungefähr O,1 und 10 mg/kg/Tag, insbesondere ungefähr 1 und 5 mg/kg/Tag liegen. Die blutdrucksenkende Wirkung wird entweder direkt mit einem Katheter, der z.B. in die femurale Arterie des Hundes eingeführt ist, oder indirekt durch Sphygmomanometrie am Rattenschwanz, und einem Uebertragungsinstrument, welches den Blutdruck vor und nach der Verabreichung des Wirkstoffes in mm Hg angibt, registriert. […]

[2] = system: anesthätisierte, bilateral vagotomisierte Bastardhunde; assay: Bradycardic effect in anaesthetised, bilaterally vagotomised dogs with heart rate raised by electrical stimulation; type: in vivo; details: Canis lupus familiaris, intravenous, read-out: intravenöse Dosis, nach der die bradykardischen Wirkungen registriert werden können
Source text: as §1

**Q.** With `C[C@H](CCc1ccccc1)NC[C@H](O)[C@H]1COc2ccccc2O1` [ℓ-erythro-2R-[2-(4-Phenyl-2R-butylamino)-1S-hydroxyäthyl]-1,4-benzodioxan-hydrochlorid] as the molecule, how does the “blutdrucksenkende Wirkung” value [1] read?
**A.** Its value is “sehr wirksam”.

**Q.** What about the minimal effective dose [2] of the same molecule?
**A.** The minimal effective dose was 0.03 mg/kg.
